The test addresses T1, α7 nAChR (Rattus norvegicus, UniProt Q05941).
T1 construct: Rat brain tissue (hippocampus or whole brain) is homogenized in homogenization buffer; from tissue; host or cells: rat brain (hippocampus or whole brain), P2 membrane fraction
Description: Affinity for α7 nAChR by inhibition of [3H]-methyllycaconitine binding to rat brain membranes. The procedure: 1. Determination of the Affinity of Test Substances for α7 nAChR by Inhibition of [^3H]-methyllycaconitine Binding to Rat Brain Membranes
The [^3H]-methyllycaconitine binding assay is a modification of the method described by Davies et al. (Neuropharmacol. 1999, 38, 679–690).
Rat brain tissue (hippocampus or whole brain) is homogenized in homogenization buffer (10% w/v, 0.32 M sucrose, 1 mM EDTA, 0.1 mM phenylmethylsulfonyl fluoride (PMSF), 0.01% (w/v) NaN3, pH 7.4, 4° C.) at 600 rpm in a glass homogenizer. The homogenate is centrifuged (1000×g, 4° C., 10 min) and the supernatant is removed. The pellet is resuspended (20% w/v) and the suspension is centrifuged (1000×g, 4° C., 10 min). The two supernatants are combined and centrifuged (15 000×g, 4° C., 30 min). The pellet obtained in this way is referred to as the P2 fraction.
The P2 pellet is washed twice with binding buffer (50 mM Tris-HCl, 1 mM MgCl2, 120 mM NaCl, 5 mM KCl, 2 mM CaCl2, pH 7.4), and centrifuged (15 000×g, 4° C., 30 min).
The P2 membranes are resuspended in binding buffer and incubated in a volume of 250 μl (amount of membrane protein 0.1–0.5 mg) in the presence of 1–5 nM [^3H]-methyllycaconitine, 0.1% (w/v) BSA (bovine serum albumin) and various concentrations of the test substance at 21° C. for 2.5 h. The nonspecific binding is determined by incubation in the presence of 1 μM α-bungarotoxin or 100 μM nicotine or 10 μM MLA (methyllycaconitine).
The incubation is stopped by adding 4 ml of PBS (20 mM Na2HPO4, 5 mM KH2PO4, 150 mM NaCl, pH 7.4, 4° C.) and filtering through type A/E glass fibre filters (Gelman Sciences) which have previously been placed in 0.3% (v/v) polyethyleneimine (PEI) for 3 h. The filters are washed twice with 4 ml of PBS (4° C.), and the bound radioactivity is determined by scintillation measurement. All the assays are carried out in triplicate. The dissociation constant Ki of the test substance is determined from the IC50 of the compounds (concentration of the test substance at which 50% of the ligand bound to the receptor is displaced), the dissociation constant KD and the concentration L of [^3H]-methyllycaconitine using the equation Ki=IC50/(1+L/KD).

[1] abbreviates: [3H]-methyllycaconitine displacement, rat brain P2 membranes, 21° C., 2.5 h, Ki=IC50/(1+L/KD), read-out: Ki.

From patent publication US7138410B2, “Aza-bicyclic N-biarylamides with affinity for the α7 nicotinic acetylcholine receptor” (Bayer HealthCare AG, priority 2002, dated 2006) come the findings set out here.

Structures can show the parent of a compound that is named as a salt. Where two headings read alike, the source gives them in different places.

As usually defined, the Ki is the equilibrium dissociation constant of an inhibitor or competing ligand from its target.

T1 sequence (Q05941 23-502): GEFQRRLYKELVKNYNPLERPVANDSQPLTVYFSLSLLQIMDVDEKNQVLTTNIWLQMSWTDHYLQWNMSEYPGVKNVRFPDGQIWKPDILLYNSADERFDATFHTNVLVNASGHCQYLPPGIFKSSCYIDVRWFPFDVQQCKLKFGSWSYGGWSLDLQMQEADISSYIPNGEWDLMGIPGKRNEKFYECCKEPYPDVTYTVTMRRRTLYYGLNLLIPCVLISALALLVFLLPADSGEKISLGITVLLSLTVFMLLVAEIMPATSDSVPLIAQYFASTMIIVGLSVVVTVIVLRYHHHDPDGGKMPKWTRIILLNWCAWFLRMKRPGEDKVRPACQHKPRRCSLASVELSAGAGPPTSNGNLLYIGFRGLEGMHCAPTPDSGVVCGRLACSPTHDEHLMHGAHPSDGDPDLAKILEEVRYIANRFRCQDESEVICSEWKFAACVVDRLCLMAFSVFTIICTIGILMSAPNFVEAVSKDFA

`O=C(CC1CN2CCC1CC2)Nc1cccc(-c2ccc(CO)cc2)c1` (stereo not shown) [Example 9, 2-(1-Azabicyclo[2.2.2]oct-3-yl)-N-[4′-(hydroxymethyl)-1,1′-biphenyl-3-yl]acetamide Hydrochloride]: the inhibitory constant (Ki) amounted to 519 nM.

With `O=C(Nc1ccc(-c2ccc(CO)cc2)cc1)[C@H]1CN2CCC1CC2` [Example 14, (3R)-N-[4′-(Hydroxymethyl)-1,1′-biphenyl-4-yl]-1-azabicyclo[2.2.2]octane-3-carboxamide Hydrochloride], the inhibition constant (Ki) was determined as 20 nM.

`O=C(Nc1ccc(-c2ccc(CO)cc2)cc1)[C@@H]1CN2CCC1CC2` [Example 15, (3S)-N-[4′-(Hydroxymethyl)-1,1′-biphenyl-4-yl]-1-azabicyclo[2.2.2]octane-3-carboxamide Hydrochloride] came in with an inhibitory constant (Ki) of 39 nM.

In turn, `CC(C)(O)c1ccc(-c2ccc(NC(=O)[C@H]3CN4CCC3CC4)cc2)cc1` [Example 20, (3R)-N-[4′-(1-Hydroxy-1-methylethyl)-1,1′-biphenyl-4-yl]-1-azabicyclo[2.2.2]octane-3-carboxamide] came in with an inhibition constant (Ki) of 10 nM.

`NC(=O)c1ccc(-c2ccc(NC(=O)[C@H]3CN4CCC3CC4)cc2)cc1` [Example 21, (3R)-N-[4′-(Aminocarbonyl)-1,1′-biphenyl-4-yl]-1-azabicyclo[2.2.2]octane-3-carboxamide Hydrochloride] yielded a Ki of 98 nM.

As to `O=C(Nc1ccc(-c2ccc(CO)c(F)c2)cc1)[C@H]1CN2CCC1CC2` [Example 22, (3R)-N-[4′-(Hydroxymethyl)-3′-fluoro-1,1′-biphenyl-4-yl]-1-azabicyclo[2.2.2]octane-3-carboxamide], the Ki is 58 nM.

Compound `CNC(=O)OCc1ccc(-c2ccc(NC(=O)[C@H]3CN4CCC3CC4)cc2)cc1` [Example 23, (4′-{[(3R)-1-Azabicyclo[2.2.2]oct-3-ylcarbonyl]amino}-1,1′-biphenyl-4-yl)methyl Methylcarbamate] displayed an inhibitory constant (Ki) of 39 nM.

`CC(C)NC(=O)OCc1ccc(-c2ccc(NC(=O)[C@H]3CN4CCC3CC4)cc2)cc1` [Example 24, (4′-{[(3R)-1-Azabicyclo[2.2.2]oct-3-ylcarbonyl]amino}-1,1′-biphenyl-4-yl)methyl Isopropylcarbamate]: the Ki under setting [1] is 230 nM.

Take `CC(=O)c1ccc(-c2ccc(NC(=O)CC3CN4CCC3CC4)cc2)cc1` (stereo not shown) [Example 26]: under setting [1], the Ki was 310 nM.

Turning to `CC(=O)c1ccccc1-c1ccc(NC(=O)CC2CN3CCC2CC3)cc1` (stereo not shown) [Example 31], under setting [1], the Ki is 420 nM.
